Experimental data from patent publication US4080454A, “5-M-Tolyloxyuracil, anti-ulcer agent” (priority 1976, dated 1978).
Entries after “also recorded” stand apart in the source; their conditions may differ.

Experiments:
[1] = Metabolism of 5-(m-methylphenoxy)-2-(1H)pyrimidinone / 5-m-tolyloxyuracil in rats (C2 radiolabel); type: in vivo
[2] = Metabolism of 5-(m-methylphenoxy)-2-(1H)pyrimidinone / 5-m-tolyloxyuracil in monkeys (C2 radiolabel); type: in vivo
[3] = tested on: stress induced gastric ulceration; test: Cold-restraint stress induced gastric ulceration (antiulcer activity); type: in vivo, female rats; settings: for % incidence of lesions / Number of lesions: 3 h before stress; for Number of lesions: total in group
Method: In order to test the antiulcer activity of 5-m-tolyloxyuracil, stress induced gastric ulceration was produced by immobilizing non-fasted, female rats in a supine position and placing them in a refrigerator at 12° C. for 3 hours. Experimental drugs were administered 3 hours before the initiation of the cold-restraint stress period. At the conclusion of the stress period, the rats were sacrificed, their stomachs inflated with 5 ml of water and removed. The isolated stomachs were placed in a 4 percent aqueous solution of formaldehyde to stiffen the serosal side of the inflated stomach. This procedure facilitates examination of the stomach which is accomplished by slitting the stomach along its greater curvature and noting the number and incidence of gastric lesions. Both control and experimental drug groups consisted of ten rats. A significant reduction in the number and incidence of gastric lesions characterizes antiulcer agents.
The table below compares 5-m-tolyoxyuracil (Compound A) with 5-m-tolyloxy-2-thiouracil (Compound B), Carbenoxolone-Na (Compound C), and 5-(m-methylphenoxy)-2(1H)-pyrimidinone (Compound D).
Percent incidence of lesions is defined as follows. [formula] Number of lesions is the total number of lesions in the experimental group.

[4] = Plasma pharmacokinetics in human subjects; type: in vivo
Method: (§1) In man, using single doses of 400 to 700 mg of 5-(m-methylphenoxy)-2-(1H)pyrimidinone, this drug had declined below the level of detectability by 2 hours post dose.
In our studies in animals and man we have never been able to isolate 5-m-tolyloxyuracil in substantially pure form. Rather we have obtained samples of urine and blood plasma from animals and man consisting of a multitude of natural components, one of which we have identified as 5-m-tolyloxyuracil by comparison of its physical properties with material prepared in substantially pure form by the synthesis described in the present application. Indeed, in samples of plasma from human subjects treated with 5-m-tolyloxy-2(1H)pyrimidinone we have only detected peak levels of 5-m-tolyloxyuracil at the very low concentration of 40 ug/ml. When we say "in substantially pure form", we mean a purity of 95% or greater.

gastric ulcer = settings: human gastric ulcer patients; cited from earlier work
[5] = tested on: experimentally-induced gastric ulceration; settings: animals; cited from earlier work
[6] = Metabolic conversion in human subjects; type: in vivo
Method: as §1

[7] = Search for other metabolic modifications of 5-(m-methylphenoxy)-2-(1H)pyrimidinone; parameters: species or system rats, monkeys and human subjects; settings: in vivo
Method: U.S. Pat. No. 3,922,345 discloses the method of treating peptic ulcers which comprises administering to a subject afflicted therewith a daily dose of about 0.60 to 21 mg per kg. of body weight of 5-(m-methylphenoxy)-2-(1H)-pyrimidinone. […] We have been unable to detect metabolic products resulting from (1) phenoxy ring hydroxylation, (2) oxidation of the m-methyl group or (3) ether cleavage.

[8] = literature; cited from earlier work
thymidine phosphorylase = settings: J. Med. Chem., 14, 812 (1971); cited from earlier work
FUDR phosphorylase = settings: J. Med. Chem., 13, 461 (1970); cited from earlier work
[9] = endogenously generated 5-m-tolyloxyuracil
[10] = rats, cold-restraint stress, doses of the table

## Cc1cccc(Oc2c[nH]c(=O)[nH]c2=O)c1 [Compound A, 5-m-tolyloxyuracil]
[1]; [9]
  metabolic degradation (ring opening, loss of C2 as carbon dioxide): does not undergo this metabolic degradation; also recorded: no appriciable quantities of radioactive CO2 were observed
[2]; [9]
  metabolic degradation (ring opening, loss of C2 as carbon dioxide): does not undergo this metabolic degradation; also recorded: no appriciable quantities of radioactive CO2 were observed
[3]; 32 mg/kg ip, control 100
  % incidence of lesions: 56%
[3]; 32 mg/kg ip, control 58
  Number of lesions: 19
[3]; 50 mg/kg ip, control 100
  % incidence of lesions: 70%
[3]; 50 mg/kg ip, control 58
  Number of lesions: 34
[3]; [10]
  antiulcer activity (in words): effective antiulcer agents at both doses tested since the number and incidence of lesions following drug treatment are significantly lower (P value < 0.05) than in controls
[3]; rats, cold-restraint stress, doses of the table, listed as 5-m-tolyloxyuracil
  antiulcer activity (in words): protects rats against ulceration
[4]; human subjects
  plasma half life compared with 5-(m-methylphenoxy)-2-(1H)pyrimidinone: much longer plasma half life; also recorded: much longer plasma half-life
[4]; human, endogenously generated after single 400 to 700 mg doses of 5-(m-methylphenoxy)-2-(1H)pyrimidinone
  peak plasma concentration compared with parent drug: peak concentrations greater than that of parent drug

## CC1(C(=O)O)CCC2(C)CCC3(C)C(=CC(=O)C4C5(C)CCC(OC(=O)CCC(=O)O)C(C)(C)C5CCC43C)C2C1 (stereo not shown) [Compound C, Carbenoxolone-Na]
Gastric ulcer
  gastric antiulcer efficacy in clinical trials: effective gastric antiulcer agent
[5]
  protection from experimentally-induced gastric ulceration: known to protect animals from experimentally-induced gastric ulceration
[3]; 32 mg/kg
  antiulcer activity (in words): less active at 32 mg/kg at which dose the activity is not significant at the P = 0.05 level
[3]; 32 mg/kg ip, control 50
  % incidence of lesions: 40%
[3]; 32 mg/kg ip, control 15
  Number of lesions: 9
[3]; 60 mg/kg
  antiulcer activity (in words): significantly active (P < 0.05)
[3]; 60 mg/kg ip, control 65
  % incidence of lesions: 25%
[3]; 60 mg/kg ip, control 24
  Number of lesions: 7

## Cc1cccc(Oc2c[nH]c(=S)[nH]c2=O)c1 [Compound B, 5-m-tolyloxy-2-thiouracil]
[3]; 10 mg/kg po, control 80
  % incidence of lesions: 80%
[3]; 10 mg/kg po, control 31
  Number of lesions: 50
[3]; [10]
  antiulcer activity (in words): inactive

## Cc1cccc(Oc2cnc(=O)[nH]c2)c1 [Compound D, 5-(m-methylphenoxy)-2(1H)-pyrimidinone]
[1]
  metabolic conversion to 5-m-tolyloxyuracil: rapidly and efficiently metabolically converted to 5-m-tolyloxyuracil
[2]
  metabolic conversion to 5-m-tolyloxyuracil: rapidly and efficiently metabolically converted to 5-m-tolyloxyuracil
[6]
  metabolic conversion to 5-m-tolyloxyuracil: rapidly and efficiently metabolically converted to 5-m-tolyloxyuracil
[7]
  other metabolic modifications (phenoxy ring hydroxylation, m-methyl oxidation, ether cleavage): do not occur to any detectable extent
[3]; 10 mg/kg ip, control 90
  % incidence of lesions: 60%
[3]; 10 mg/kg ip, control 42
  Number of lesions: 12
[3]; 32 mg/kg ip, control 90
  % incidence of lesions: 40%
[3]; 32 mg/kg ip, control 34
  Number of lesions: 13
[3]; [10]
  antiulcer activity (in words): effective antiulcer agents at both doses tested since the number and incidence of lesions following drug treatment are significantly lower (P value < 0.05) than in controls
[4]; human, single doses of 400 to 700 mg
  time post dose to decline below the level of detectability: ≤ 2 h

## O=c1[nH]cc(F)c(=O)[nH]1 [5-fluorouracil]
[8]
  metabolic conversion / degradation: metabolically converted to 5,6-dihydrouracils which undergo ring opening with subsequent loss of the C2 pyrimidine carbon as carbon dioxide; also recorded: undergoes a reduction of the 5,6-double bond to give a 5,6-dihydrouracil which subsequently undergoes ring opening to an N-acetamido βalanine which then loses the C-2 pyrimidine carbon as carbon dioxide

## O=c1[nH]cc(Oc2ccccc2)c(=O)[nH]1 [5-Phenoxyuracil]
Thymidine phosphorylase
  inhibition of thymidine phosphorylase: poor activity
FUDR phosphorylase
  inhibition of FUDR phosphorylase: poor activity
